Test results as given in paper PMC3310325 (Bioconjugate Chemistry, 2012).
Like-named read-outs stand apart in the source and are kept apart here.

Key:
[1] = tested on: HT1080 human fibrosarcoma xenografts; assay: In vivo planar fluorescence imaging in HT1080 tumor-bearing mice; set-up: species or system human xenograft in male NCR nude mice
MMP-1 = conditions: -PLGVR- sequence; cited from earlier work
MMP-3 = conditions: -PLGVR- sequence; cited from earlier work
MMP-7 [2] = conditions: -PLGVR- sequence; cited from earlier work
gelatinases = conditions: -PLGVR- sequence; cited from earlier work
MMP-2 [3] = biological target: T1, MMP-2 (Homo sapiens, UniProt P08253); conditions: cited from earlier work
T1 sequence (P08253 110-660): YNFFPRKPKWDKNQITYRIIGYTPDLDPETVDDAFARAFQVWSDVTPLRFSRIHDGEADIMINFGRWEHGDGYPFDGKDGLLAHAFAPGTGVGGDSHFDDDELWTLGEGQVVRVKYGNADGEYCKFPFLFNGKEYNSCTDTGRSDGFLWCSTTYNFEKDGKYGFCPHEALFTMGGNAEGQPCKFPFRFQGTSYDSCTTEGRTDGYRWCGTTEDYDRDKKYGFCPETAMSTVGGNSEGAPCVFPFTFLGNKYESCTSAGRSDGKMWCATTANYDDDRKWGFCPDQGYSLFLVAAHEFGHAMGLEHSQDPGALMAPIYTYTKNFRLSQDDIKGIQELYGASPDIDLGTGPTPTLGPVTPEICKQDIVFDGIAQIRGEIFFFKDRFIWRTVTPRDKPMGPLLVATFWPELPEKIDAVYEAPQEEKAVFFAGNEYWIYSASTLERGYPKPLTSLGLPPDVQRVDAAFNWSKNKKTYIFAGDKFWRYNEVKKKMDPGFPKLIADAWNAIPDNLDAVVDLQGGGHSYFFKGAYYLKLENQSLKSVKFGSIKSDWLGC

MMP-2 [4] = conditions: 450 kDa co-polymer conjugated to -Pro-Leu-Gly~Val-Arg-Gly-; cited from earlier work
MMP-2 [5] = biological target: T1, MMP-2; conditions: cited from earlier work; remark: listed apart in the source
MMP-9 = conditions: single-stranded peptide without the GPO triplets; cited from earlier work
MMP-7 [6] = conditions: cited from earlier work
[7] = previously determined; cited from earlier work

CNC(=O)[C@H](Cc1c[nH]c2ccccc12)NC(=O)[C@@H](CC(=O)NO)CC(C)C [Ilomastat]
time course of tumor fluorescence intensity with inhibitor ([1]; mice treated with Ilomastat 1 mg/kg i.p., LS276-THP i.p.): a steady increase in fluorescence intensity occurred, indicating incomplete inhibition of tumor-associated MMP-2/MMP-9 activity

-PLGVR- [MMPSense™ 680]
tumor contrast versus contralateral thigh ([1]; 24 h post-injection, MMPSense 680 2 nmol i.v., n=3): about two-fold
tumor-specific fluorescence enhancement relative to LS276-THP ([1]; MMPSense 680 2 nmol i.v. vs LS276-THP i.p.): slightly higher
tumor-specific fluorescence contrast over time ([1]; MMPSense 680 2 nmol i.v., n=3, 24 h): increased over time for 24 h
proteolysis by MMP-1 (MMP-1): subject to proteolysis
proteolysis by MMP-3 (MMP-3): subject to proteolysis
proteolysis by MMP-7 (MMP-7 [2]): subject to proteolysis
proteolysis by gelatinases (gelatinases): subject to proteolysis

-Pro-Leu-Gly~Val-Arg-Gly-
Km (MMP-2 [3]): 290 µM
kcat (MMP-2 [3]): 4.1 s⁻¹
kcat/KM (MMP-2 [3]): 14000 M⁻¹ s⁻¹

-Pro-Leu-Gly~Val-Arg-Gly- [poly-lysine-PEG co-polymer]
in vivo visualization of MMP-2 activity (MMP-2 [4]): MMP-2 activity in mouse models was visualized

GPPG~VVGEKGEQ
hydrolysis by MMP-2 (MMP-2 [5]; single-stranded peptide without the GPO triplets): hydrolyzed extremely slowly
hydrolysis by MMP-9 (MMP-9): hydrolyzed extremely slowly

GVPLSLTMGC
level of quenching (MMP-7 [6]; heterologous donor and acceptor pair of near infrared dyes on the N- and C-terminus): 85%
fluorescence increase after digestion with MMP-7 (MMP-7 [6]; heterologous donor/acceptor NIR dyes on N- and C-terminus): ~7 fold

[(GPO)5GPK((7-methoxycoumarin-4-yl)acetyl)GPPG~VVGEK(2,4-dinitrophenyl)GEQ(GPO)5]3 [fluorogenic THP]
midpoint transition temperature TM [7]: 45 °C
Km (MMP-2 [5]; MMP-2 hydrolysis): 4.4 µM
kcat (MMP-2 [5]; MMP-2 hydrolysis): 0.062 s⁻¹
kcat/KM (MMP-2 [5]; MMP-2 hydrolysis): 14,000 s^−1M^−1
